How the values were obtained:
ATase1 = target: T1, ATase1 (Homo sapiens, UniProt Q9UHF3); test: AcetylCoA:lysine acetyltransferase assay (fluorescent, affinity purified ATase1-myc); format: biochemical
T1 construct: myc (C); made in house
T1 sequence (Q9UHF3 1-227): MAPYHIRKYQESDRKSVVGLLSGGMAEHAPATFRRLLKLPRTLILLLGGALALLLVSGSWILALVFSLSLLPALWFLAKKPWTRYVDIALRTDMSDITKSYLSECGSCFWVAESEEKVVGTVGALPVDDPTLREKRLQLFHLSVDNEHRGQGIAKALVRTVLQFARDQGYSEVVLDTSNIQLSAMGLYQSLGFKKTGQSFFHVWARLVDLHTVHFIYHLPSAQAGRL
Protocol: The acetyl:CoA lysine acetyltransferase activity of ATase1 and ATase2 was assayed as described before (Ko and Puglielli, 2009). Briefly, we adapted a commercially available fluorescent kit (cat. no. 10006515, Cayman Chemicals) as follows: as source of the enzymatic activity, we used affinity purified ATase1-myc and ATase2-myc at the final concentration of 300 ng/μl; as donor of the acetyl group, we used acetyl-CoA at the final concentration of 12.5 μM. […] The acetyltransferase assay was performed as recommended by the manufacturer.
For kinetic analysis of ATase1 and ATase2 inhibition, the assays were performed in the presence of the indicated concentrations of compound 9, 19 and 9.I. The concentration of acetyl-CoA was varied from […]. Values were plotted as a Lineweaver-Burk plot using Graphpad Prism software.
We previously described a fluorescent assay that is able to assess the acetylCoA:lysine acetyltransferase activity of ATase1 and ATase2 in vitro (Ko and Puglielli, 2009). The assay employs affinity purified ATase1 or ATase2 (as enzymes), acetyl-CoA (as donor of the acetyl group) and a recombinant peptide corresponding to the N-terminal tail of the histone protein H3 (as acceptor of the acetyl group). The H3 peptide was preferred to affinity purified BACE1 because it is acetylated in a conformation independent manner ((Ko and Puglielli, 2009) and data not shown) and, therefore, more suitable for large screening approaches. To identify possible ATase1 and ATase2 inhibitors we used the assay to screen a single library of 14,400 small molecules/compounds. The screen identified 186 small molecules/compounds able to inhibit ATase1, ATase2 or both in vitro. […] Each compound was then screened for cytotoxic properties by using multi-plex cytotoxicity assays on a variety of cell lines, including human neuroblastoma and human neuroglioma. […] The above 30 compounds were individually screened on human neuroglioma (H4) cells for their ability to reduce the levels of BACE1 and the generation of Aβ. Two compounds, 9 and 19, produced significant changes and were object of further study.

ATase1 and ATase2 = test: Western blot assessment of endogenous ATase1/ATase2 levels in H4 cells; format: cell-based, human; conditions: 48 hours
Protocol: FIG. 4. Compound 9 causes degradation of the ATases. (A) H4 cells were treated with the indicated compounds (10 μM) for 48 hours prior to Western blot assessment of BACE1 and ATase1/ATase2 levels in total cell lysates. (B, D and E) Quantification of changes are expressed as percent of control (no treatment) and are the average (n=3)±S.D.*, P<0.05; **, P<0.005; ^#, P<0.0005. (C) ELISA determination of secreted Aβ in the conditioned media of the experiment described in (A). Results are expressed as percent of control (no treatment) and are the average (n=3)±S.D.*, P<0.05; **, P<0.005. (F) CHO cells over-expressing either ATase1 or ATase2 were treated with compound 9 (10 μM) for 48 hours prior to Western blot assessment of ATase1 and ATase2 levels in total cell lysates.
FIG. 13. Compound 9 decreases the levels of both ATase1 and ATase2. (A) H4 cells were treated with the increasing concentrations of compound 9 for 48 hours prior to Western blot assessment of BACE1 and ATase1/ATase2 levels in total cell lysates. (B-D) Quantification of changes are expressed as percent of control (no treatment) and are the average (n=3)±S.D.*, P<0.05; **, P<0.005; ^#, P<0.0005.
Western blotting was performed on a 4-12% Bis-Tris SDS-PAGE system (NuPAGE; Invitrogen, Carlsbad, Calif., USA) as described previously (Costantini et al., 2006; Jonas et al., 2008; Jonas et al., 2010; Ko and Puglielli, 2007; Ko and Puglielli, 2009; Pehar et al., 2010). The following antibodies were used in this study: anti-acetylated lysine (monoclonal; cat. no. ab409; Abcam, Cambridge, Mass., USA); anti-BACE1 (polyclonal; cat. no. ab2077; Abcam); anti-Myc (monoclonal; cat. no. sc-40; santa cruz, Santa Cruz, Calif., USA); anti-ATases/NAT8 (polyclonal; cat. no. AP4957c; Abgent, San Diego, Calif., USA); anti-actin (monoclonal; cat. no. A1978; Sigma, St Louis, Mo., USA); anti-C99 (monoclonal; cat. no. M066-3; MBL, Woburn, Mass., USA); anti-acetylated H3 (polyclonal; cat. no. 06-599, Millipore, Billerica, Mass.); anti-acetylated H4 (polyclonal; cat. no. 06-866, Millipore, Billerica, Mass.); anti-αPCNA (polyclonal; cat. no. […]

APP695/swe mice = test: Long-term potentiation in hippocampal brain slices of treated mice; format: in vivo, mouse; conditions: 50 mg/kg/day in diet, 4 months
Protocol: FIG. 15. Compound 9 prevents synaptic deficits in APP695/swe mice. Non-Transgenic (Non-Tg) and APP695/swe mice were fed a diet containing 50 mg/kg/day of compound 9 for 4 months prior to synaptic assessment. Compound 9 prevented the severe deficits of the late component of long term potentiation (LTP) that characterizes the APP695/swe phenotype (A). […] Field excitatory postsynaptic potential (fEPSP) as percent of baseline (100) is shown as a function of time. Calibration: 1 mV, 1 ms. All values are mean±SEM. *P<0.0001.
In order to assess disease-relevant functions, we performed a pilot study with APP695/swe mice, a commonly-used mouse model of AD. APP695/swe mice express a modified mouse APP cDNA encoding the 695-amino acid isoform with a “humanized” Aβ domain that includes the familial AD-associated Swedish double mutation. APP695/swe mice develop synaptic deficits at 3-5 months of age, well before any sign of neurodegeneration can be observed. The cognitive deficits as well as the amyloid plaques can be detected only later, at approximately 12-18 months of age (reviewed in Duyckaerts, et al., 2008).
A group of non-transgenic and APP695/swe mice were fed a diet containing 50 mg/kg/day of compound 9. Treatment started at weaning (˜6 weeks of age) and lasted 4 months. […]

IC50 (ATase1): ~3.9 µM | kinetics of inhibition for acetyl-CoA, ATase1 (ATase1; Lineweaver-Burk plot, acetyl-CoA varied): competitive inhibition
SMILES: O=c1c(Cl)c2oc3ccccc3nc-2c2ccccc12 [Compound 9]
endogenous levels of ATase1 and ATase2 (ATase1 and ATase2; 10 μM): significantly down-regulate | levels of the ATases with increasing concentrations (ATase1 and ATase2; increasing concentrations): dose-dependent decrease | defect in late component of long-term potentiation (LTP) (APP695/swe mice; APP695/swe mice): drastically prevented | effect on LTP in non-transgenic mice (APP695/swe mice; non-transgenic mice): no effect was observed
